The record followed here is the OligoGym collection.

In the data set the target is SNHG14. Conditions: ASO.
Where [1] appears, read: Mouse Primary Neuronal Cell, 0.005 µM.

After the bases stand the sugars from the 5' end (letter, count) and the backbone: PS all phosphorothioate, else s phosphorothioate and o phosphodiester by linkage. Methylation of C is not given here. l = locked nucleic acid (LNA); d = 2'-deoxy (DNA)

With CCAAATAAGCAAACTC (sugars l3 d10 l3, PS), the target mRNA inhibition reads like this: (Human Neuronal Cell, 0.2 µM) 60%; (Human Neuronal Cell, 1 µM) 39%.
In the case of “GCAACATTATTAACCACCT (sugars ldddddddddddldlddll, PS)”, where the note is “Human Neuronal Cell, 7.5 µM”, the target mRNA inhibition came out at 41%.
Take ATCCCTTTGTAATCAT (sugars l4 d10 l2, PS): the target mRNA inhibition runs as follows: (Human Neuronal Cell, 0.2 µM) 33%; (Human Neuronal Cell, 1 µM) 28%.
For “TTCTGTATACACCATCC (sugars l1 d3 l1 d9 l3, PS)”, the target mRNA inhibition (Human Neuronal Cell, 7.5 µM) stood at 64%.
Same read-out and setting: in the case of “TATTGATTCAATTCCCT (sugars lddldddddddddldll, PS)” it was 51%.
The same measure, in the same setting: next, “TCAGCTTTTAACCAGAGTG (sugars l2 d14 l3, PS)”: 76%.
Turning to “CCTTTCCAATGAATCTA (sugars l2 d11 l4, PS)”, the target mRNA inhibition (Human Neuronal Cell, 0.2 µM) was determined as 53% and the target mRNA inhibition (Human Neuronal Cell, 1 µM) worked out at 59%.
In the case of “TCTTTCCATTTATTTCCATT (sugars l2 d13 l1 d1 l3, PS)”, for the setting “Human Neuronal Cell, 7.5 µM”, the target mRNA inhibition was found to be 42%.
On to CACCTTAAGTAACATT (sugars l4 d10 l2, PS), for which the target mRNA inhibition (Human Neuronal Cell, 0.2 µM) turned out to be 19% and the target mRNA inhibition (Human Neuronal Cell, 1 µM) came out at 21%.
As for “GCTCCATATTTAAATCC (sugars l4 d11 l2, PS)”, the target mRNA inhibition worked out at 20% (Human Neuronal Cell, 0.2 µM) and 45% (Human Neuronal Cell, 1 µM).
On to CCCTTATAGTTATTAA (sugars l3 d10 l3, PS), for which the target mRNA inhibition (Human Neuronal Cell, 0.2 µM) was determined as 26% and the target mRNA inhibition (Human Neuronal Cell, 1 µM) was 13%.
For “TTCTGTATACACCATCC (sugars l1 d1 l1 d11 l3, PS)”, under “Human Neuronal Cell, 7.5 µM”, the target mRNA inhibition worked out at 58%.
Still for that read-out and setting: in the case of “GAAAATCTCAACTACCATT (sugars l4 d10 l1 d1 l3, PS)” it was 45%; in that of “GCTTTTAACCAGAGTGGC (sugars l1 d14 l3, PS)”, 63%; in that of “CTCAAAGATCATTCTCA (sugars ldlldddddddlddlll, PS)”, 69%.
The same measure, in the same setting: in the case of “ACTGTTTATACCCTTTC (sugars lddldddddddldddll, PS)” it was 53%.
With “CCCATTTCTAACATTTAC (sugars l3 d12 l3, PS)”, the target mRNA inhibition is 50% (Human Neuronal Cell, 0.2 µM) and 64% (Human Neuronal Cell, 1 µM).
Consider “ATCATTCTCAACAATTA (sugars l5 d6 l2 d2 l2, PS)”, for which, under “Human Neuronal Cell, 7.5 µM”, the target mRNA inhibition is 31%.
Regarding “TACTCTGCAATACACCA (sugars l1 d2 l2 d10 l2, PS)”, the target mRNA inhibition (Human Neuronal Cell, 7.5 µM) came to 56%.
Same read-out and setting: next, “AGTTCTACTATACTTTCC (sugars l1 d12 l1 d2 l2, PS)”: 52%.
“CTATTTAATTTACACTT (sugars l3 d11 l3, PS)”: the target mRNA inhibition runs as follows: (Human Neuronal Cell, 0.2 µM) 15%; (Human Neuronal Cell, 1 µM) 13%.
On to “TAAAATTATTTATACACCA (sugars ldlldldddddddllllll, PS)”, for which the target mRNA inhibition (Human Neuronal Cell, 7.5 µM) stood at 39%.
Still for that read-out and setting: in the case of “TAAAATTATTTATACACCAT (sugars lddlddlddddddlldllll, PS)” it was 2%.
Regarding CCTATGTTAATACTTT (sugars l4 d10 l2, PS), the target mRNA inhibition by setting is: (Human Neuronal Cell, 0.2 µM) 25%; (Human Neuronal Cell, 1 µM) 29%.
With AGCTTACCAAATATTC (sugars l4 d10 l2, PS), the target mRNA inhibition (Human Neuronal Cell, 0.2 µM) worked out at 17% and the target mRNA inhibition (Human Neuronal Cell, 1 µM) stood at 23%.
As for “ATTTTTTTCTTACTATCTTC (sugars ldlldlldddddddddddll, PS)”, the target mRNA inhibition (Human Neuronal Cell, 7.5 µM) is 69%.
With GCCAATACCCACAAAC (sugars l3 d10 l3, PS), the target mRNA inhibition (Human Neuronal Cell, 0.2 µM) came to 11% and the target mRNA inhibition (Human Neuronal Cell, 1 µM) turned out to be 33%.
With “TTTATTTCCATTTATTTTC (sugars l5 d7 l1 d3 l3, PS)”, the target mRNA inhibition (Human Neuronal Cell, 7.5 µM) came to 55%.
With “CTTTCCATTTATTTCCATTT (sugars ldddddddddddddldldll, PS)”, the target mRNA inhibition (Human Neuronal Cell, 7.5 µM) is 47%.
For the sequence “AAATCTCAACTACCATTTTT (sugars llldldlddddddddddlll, PS)”, the target mRNA inhibition (Human Neuronal Cell, 7.5 µM) is 34%.
With ACATCTCATACTTGCT (sugars l4 d10 l2, PS), the target mRNA inhibition under setting [1] is 94.8%.
Turning to “AAATTTCCAAACCTTTC (sugars l2 d11 l4, PS)”, the target mRNA inhibition came out at 42% (Human Neuronal Cell, 0.2 µM) and 53% (Human Neuronal Cell, 1 µM).
“ACTGTTTATACCCTTTCC (sugars l1 d2 l1 d12 l2, PS)”: the target mRNA inhibition (Human Neuronal Cell, 7.5 µM) came out at 46%.
On to “AAATCTCAACTACCATTTTT (sugars ldlddldddddddllddlll, PS)”, for which, under “Human Neuronal Cell, 7.5 µM”, the target mRNA inhibition was determined as 29%.
Take “CTCCAACATAGATCCTC (sugars l3 d11 l3, PS)”: the target mRNA inhibition is, setting by setting: (Human Neuronal Cell, 0.2 µM) 52%; (Human Neuronal Cell, 1 µM) 60%.
As to TTTATACCCTTTCCAA (sugars l2 d10 l4, PS), the target mRNA inhibition was 55% (Human Neuronal Cell, 0.2 µM) and 63% (Human Neuronal Cell, 1 µM).
For the sequence ACACATCTTGTATACA (sugars l4 d10 l2, PS), the target mRNA inhibition reads like this: (Human Neuronal Cell, 0.2 µM) 49%; (Human Neuronal Cell, 1 µM) 56%.
For the sequence “TTTCCATTTATTTCCATTTA (sugars lddddldddddddlddldll, PS)”, where the note is “Human Neuronal Cell, 7.5 µM”, the target mRNA inhibition worked out at 58%.
Turning to CTTTTAACCAGAGTG (sugars l4 d7 l4, PS), where the note is “Human Neuronal Cell, 7.5 µM”, the target mRNA inhibition stood at 54%.
Same read-out and setting: next, “ATTTTTTTCTTACTATCTTC (sugars ldddllddddddddlddlll, PS)”: 58%; “TTTTAACCAGAGTGGCATC (sugars l4 d13 l2, PS)”: 45%.
Turning to “CATTATTATTTAACCTT (sugars l2 d11 l4, PS)”, the target mRNA inhibition (Human Neuronal Cell, 0.2 µM) is -2% and the target mRNA inhibition (Human Neuronal Cell, 1 µM) was found to be 14%.
Regarding “AGTTCTACTATACTTTCC (sugars lddddldddddddlddll, PS)”, the target mRNA inhibition (Human Neuronal Cell, 7.5 µM) is 60%.
On to “ATATTGATTCAATTCCC (sugars ldddlddddddllddll, PS)”, for which the target mRNA inhibition (Human Neuronal Cell, 7.5 µM) is 62%.
On the same count and under the same terms, next, “AGTTCTACTATACTTTCC (sugars l2 d14 l2, PS)”: 14%; “TATCTTTCCATTTATTTCCA (sugars l1 d17 l2, PS)”: -7%; “AAAATCTCAACTACCATTT (sugars l3 d10 l6, PS)”: 48%.
For “TGTCATCTAACTTCTTA (sugars l4 d11 l2, PS)”, the target mRNA inhibition (Human Neuronal Cell, 0.2 µM) came out at 45% and the target mRNA inhibition (Human Neuronal Cell, 1 µM) stood at 38%.
With “TTATAGCCATTCTATCT (sugars l3 d8 l1 d3 l2, PS)”, the target mRNA inhibition (Human Neuronal Cell, 7.5 µM) amounted to 58%.
Same read-out and setting: in the case of “TTCTGTATACACCATCC (sugars l1 d13 l3, PS)” it was 59%; in that of “AAAATCTCAACTACCATTT (sugars llddlldddddddlldlll, PS)”, 52%.
For the sequence “TCATTTCATATTACTAAC (sugars l4 d12 l2, PS)”, the target mRNA inhibition is, setting by setting: (Human Neuronal Cell, 0.2 µM) 13%; (Human Neuronal Cell, 1 µM) 32%.
With “TTCCATTTATTTCCATTTAT (sugars ldldllddddddddldddll, PS)”, the target mRNA inhibition (Human Neuronal Cell, 7.5 µM) came to 59%.
As for “TGTACTTTCCTTTACCA (sugars l2 d13 l2, PS)”, the target mRNA inhibition reads like this: (Human Neuronal Cell, 0.2 µM) 33%; (Human Neuronal Cell, 1 µM) 59%.
Turning to “AAAATTATTTATACACCATC (sugars l1 d2 l2 d9 l6, PS)”, the target mRNA inhibition (Human Neuronal Cell, 7.5 µM) was found to be 56%.
As for “CCTACATCTCATACTTG (sugars l4 d11 l2, PS)”, the target mRNA inhibition is, setting by setting: (Human Neuronal Cell, 0.2 µM) -13%; (Human Neuronal Cell, 1 µM) 17%; (Human Neuronal Cell, 5 µM) 12%; under setting [1], 94.2%.
Take “GAAAATCTCAACTACCATT (sugars l2 d1 l2 d10 l4, PS)”: the target mRNA inhibition (Human Neuronal Cell, 7.5 µM) worked out at 60%.
